Measured values as given in paper PMC11279465, “Dual Inhibitors of P-gp and Carbonic Anhydrase XII (hCA XII) against Tumor Multidrug Resistance with Piperazine Scaffold” (Molecules, 2024).

What was measured:
hCA I = target: T1, hCA I (Homo sapiens, UniProt P00915); experiment: CA inhibition, stopped-flow CO2 hydrase assay; assay type: biochemical; settings: stopped-flow technique; incubation time 6 h; mean of 3 assays
T1 construct: made in house
Summary of the method: (§1)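 Stopped-flow CO2 hydration used saturated CO2 solutions at 25 °C as substrate. Enzyme and inhibitor (10 μM stocks in DMSO-water, diluted down to 0.01 nM) were preincubated for 6 h at room temperature.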

hCA II = target: T2, hCA II (Homo sapiens, UniProt P00918); experiment: CA inhibition, stopped-flow CO2 hydrase assay; assay type: biochemical; settings: stopped-flow technique; incubation time 6 h; mean of 3 assays
T2 construct: made in house
Summary of the method: as §1

hCA IX = target: T3, hCA IX (Homo sapiens, UniProt Q16790); experiment: CA inhibition, stopped-flow CO2 hydrase assay; assay type: biochemical; settings: stopped-flow technique; incubation time 6 h; mean of 3 assays
T3 construct: made in house
Summary of the method: as §1

hCA XII = target: T4, hCA XII (Homo sapiens, UniProt O43570); experiment: CA inhibition, stopped-flow CO2 hydrase assay; assay type: biochemical; settings: stopped-flow technique; incubation time 6 h; mean of 3 assays
T4 construct: made in house
Summary of the method: as §1

K562/DOX cells = experiment: Doxorubicin cytotoxicity enhancement assay (MTT); assay type: cell-based, human; settings: 72 h
Summary of the method: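 K562/DOX cells exposed 72 h to varying doxorubicin concentrations plus 1 or 3 µM test compound. Viability by MTT absorbance, expressed as percentage of untreated control cells.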

MRP1 = target: T5, MRP1 (Homo sapiens, UniProt P33527); experiment: Calcein-AM transport inhibition in MDCK-MRP1 cells; assay type: cell-based; settings: mean ± SEM
T5 construct: expressed in transfected cells; host or cells: MDCK (Madin-Darby Canine Kidney)
From the text: (§2) The MDR interaction potency of these compounds was studied by detecting the inhibition of the P-gp-, MRP1- or BCRP-mediated efflux of a substrate in cells overexpressing the studied pumps. In detail, we measured the following: (i) the transport inhibition of the profluorescent probe calcein-AM (P-gp and MRP1 substrate) in MDCK-MDR1 and MDCK-MRP1 cells (P-gp- and MRP1-overexpressing cells, respectively); (ii) the transport inhibition of the fluorescent probe Hoechst 33342 (BCRP substrate) in MDCK-BCRP cells (BCRP-overexpressing cells).
Experiments were performed as previously described. MDCK-MDR1 and MDCK-MRP1 cells (30,000 cells per well) were seeded in a 96-well black CulturePlate in 100 µL of medium and allowed to grow overnight in a humidified atmosphere of 5% CO2 at 37 °C. […] All wells were washed 3 times with 100 µL ice-cold PBS and read with Victor3 (PerkinElmer) after adding 100 µL of cold PBS. […] In these experimental conditions, cell Calcein-AM accumulation in the absence and in the presence of each tested compound was evaluated and compared to the basal level of fluorescence derived from untreated cells. The increase in fluorescence from the baseline level was measured in the treated wells. EC50 values were determined by fitting the rate of fluorescence increase versus log[dose].

A549/DOX cells [1] = experiment: Intrinsic cytotoxicity (MTT); assay type: cell-based, human; settings: compound alone, 1 µM, 48 h; A549/DOX vs A549
Method: (§3) All compounds were preliminarily studied to evaluate their intrinsic cytotoxicity at different concentrations (from 10 nM to 50 µM) in the parental HT29 and A549 and the resistant HT29/DOX and A549/DOX cells using the MTT assay.
(§4) The intrinsic toxicity of the studied compounds was determined by an MTT assay. K562 and K562/DOX were exposed for 72 h with compounds at 1 and 3 µM concentrations while HT29, A549, HT29/DOX and A549/DOX cells were incubated for 48 h with compounds used at different concentrations (from 10 nM to 50 µM). The percentage of growth compared to the untreated control was transformed into histograms with the GraphPad Prism 5 program. […]

HT29/DOX cells [2] = experiment: Intrinsic cytotoxicity (MTT); assay type: cell-based, human; settings: compound alone, 1 µM, 48 h; HT29/DOX vs HT29
Method: as §3, §4

A549/DOX cells [3] = experiment: ROS measurement (DCFDA-AM); assay type: cell-based, human; settings: 1 µM
Method: (§5) Selected compounds have been tested for their cytotoxic activity at 24 h on HT29/DOX and A549/DOX cells and on the parental HT29 and A549 cells by MTT assay. To evaluate the mechanisms involved in CS, reactive oxygen species (ROS) were measured using the fluorescent probe 5-(and-6)-chloromethyl-2′,7′-dichlorodihydro-fluorescein diacetate-acetoxymethyl ester (DCFDA-AM), as previously reported. The results were expressed as nmol/mg cellular proteins. The amount of TBARS, as an index of lipoperoxidation, was measured with the Lipid Peroxidation (4-HNE) Assay Kit (Abcam, Cambridge, UK) that evaluates the 4-hydroxy-nonenale, one of the TBARS Results were expressed as nmoles/mg mitochondrial protein.

HT29/DOX cells [4] = experiment: ROS measurement (DCFDA-AM); assay type: cell-based, human; settings: 1 µM
Method: as §5

A549/DOX cells [5] = experiment: TBARS (lipid peroxidation, 4-HNE kit); assay type: cell-based, human; settings: 1 µM
Method: as §5

HT29/DOX cells [6] = experiment: TBARS (lipid peroxidation, 4-HNE kit); assay type: cell-based, human; settings: 1 µM
Method: as §5

A549/DOX cells [7] = experiment: Membrane fluidity; assay type: cell-based, human; settings: 1 µM
Method: (§6) Membrane fluidity was measured fluorometrically using the Membrane Fluidity Kit, Abcam, according to the manufacturer’s instructions.

HT29/DOX cells [8] = experiment: Membrane fluidity; assay type: cell-based, human; settings: 1 µM
Method: as §6

P-gp [9] = target: T6, P-gp (Homo sapiens, UniProt P08183); experiment: P-gp ATPase activity (HT29/DOX cells); assay type: biochemical; set-up: endogenous in cells; host or cells: HT29/DOX (A27) and A549/DOX (A28); settings: 1 µM, compared with HT29
Method: (§7) Plasma-membrane vesicles enriched with P-gp were prepared by sequential centrifugation as detailed previously. The ATPase activity of immunopurified P-gp was evaluated spectrophotometrically by measuring the absorbance of the phosphate hydrolyzed from ATP at 620 nm, using a Synergy HT Multi-Detection Microplate Reader (Bio-Tek Instruments). The absorbance was converted into μmol hydrolyzed phosphate/min/mg proteins, according to the titration curve previously prepared.

P-gp [10] = target: T6, P-gp; experiment: P-gp ATPase activity (A549/DOX cells); assay type: biochemical; set-up: endogenous in cells; host or cells: HT29/DOX (A27) and A549/DOX (A28); settings: 1 µM, compared with A549
Method: as §7

P-gp [11] = target: T6, P-gp; experiment: Calcein-AM transport inhibition in MDCK-MDR1 cells; assay type: cell-based; set-up: expressed in transfected cells; host or cells: MDCK (Madin-Darby Canine Kidney); settings: mean ± SEM
From the text: as §2
Experiments were performed as previously described. MDCK-MDR1 and MDCK-MRP1 cells (30,000 cells per well) were seeded in a 96-well black CulturePlate in 100 µL of medium and allowed to grow overnight in a humidified atmosphere of 5% CO2 at 37 °C. Tested compounds (100 µL) in a final concentration ranging between 0.01 nM and 100 µM, solubilized in culture medium, were added to the monolayers. After 30 min in a humidified atmosphere of 5% CO2 at 37 °C, 100 µL of Calcein-AM in phosphate-buffered saline (PBS) was added to obtain a final concentration of 2.5 µM and the plate was incubated for 30 min. All wells were washed 3 times with 100 µL ice-cold PBS and read with Victor3 (PerkinElmer) after adding 100 µL of cold PBS. Excitation and emission wavelengths of 485 nm and 535 nm, respectively, were used. In these experimental conditions, cell Calcein-AM accumulation in the absence and in the presence of each tested compound was evaluated and compared to the basal level of fluorescence derived from untreated cells. The increase in fluorescence from the baseline level was measured in the treated wells. EC50 values were determined by fitting the rate of fluorescence increase versus log[dose].

T6 sequence (P08183 whole entry): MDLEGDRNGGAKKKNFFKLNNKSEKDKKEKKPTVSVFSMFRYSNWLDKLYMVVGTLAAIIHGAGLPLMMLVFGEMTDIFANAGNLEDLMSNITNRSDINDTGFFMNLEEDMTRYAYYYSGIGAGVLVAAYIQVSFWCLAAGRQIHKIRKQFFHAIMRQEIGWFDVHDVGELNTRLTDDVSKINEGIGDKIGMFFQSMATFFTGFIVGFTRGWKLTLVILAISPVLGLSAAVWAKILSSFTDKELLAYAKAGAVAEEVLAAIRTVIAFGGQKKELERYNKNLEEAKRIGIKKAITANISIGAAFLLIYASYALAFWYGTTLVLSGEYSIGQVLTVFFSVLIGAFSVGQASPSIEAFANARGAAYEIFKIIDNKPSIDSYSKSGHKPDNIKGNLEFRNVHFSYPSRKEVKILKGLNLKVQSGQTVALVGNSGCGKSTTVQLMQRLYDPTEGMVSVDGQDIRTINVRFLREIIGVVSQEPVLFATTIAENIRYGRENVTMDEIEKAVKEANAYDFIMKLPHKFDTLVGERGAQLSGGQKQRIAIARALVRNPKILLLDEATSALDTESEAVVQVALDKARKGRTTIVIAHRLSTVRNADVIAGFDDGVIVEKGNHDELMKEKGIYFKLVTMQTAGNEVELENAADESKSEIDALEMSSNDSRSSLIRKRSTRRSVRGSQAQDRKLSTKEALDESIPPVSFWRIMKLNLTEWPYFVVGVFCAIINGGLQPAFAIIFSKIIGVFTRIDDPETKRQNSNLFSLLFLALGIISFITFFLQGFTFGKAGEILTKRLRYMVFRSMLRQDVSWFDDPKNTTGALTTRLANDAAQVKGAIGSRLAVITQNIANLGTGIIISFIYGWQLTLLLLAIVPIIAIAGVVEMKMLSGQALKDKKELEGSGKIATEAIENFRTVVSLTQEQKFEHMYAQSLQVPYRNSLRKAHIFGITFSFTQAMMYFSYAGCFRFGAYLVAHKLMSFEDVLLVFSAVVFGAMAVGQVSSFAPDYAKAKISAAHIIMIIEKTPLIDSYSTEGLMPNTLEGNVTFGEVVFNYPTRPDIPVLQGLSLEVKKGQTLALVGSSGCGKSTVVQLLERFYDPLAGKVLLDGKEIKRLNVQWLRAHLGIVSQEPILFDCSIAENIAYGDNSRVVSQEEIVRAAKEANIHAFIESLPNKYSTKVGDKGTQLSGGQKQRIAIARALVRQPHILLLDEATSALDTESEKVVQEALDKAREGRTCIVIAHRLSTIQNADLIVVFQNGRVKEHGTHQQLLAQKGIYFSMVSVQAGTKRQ
T5 sequence (P33527 whole entry): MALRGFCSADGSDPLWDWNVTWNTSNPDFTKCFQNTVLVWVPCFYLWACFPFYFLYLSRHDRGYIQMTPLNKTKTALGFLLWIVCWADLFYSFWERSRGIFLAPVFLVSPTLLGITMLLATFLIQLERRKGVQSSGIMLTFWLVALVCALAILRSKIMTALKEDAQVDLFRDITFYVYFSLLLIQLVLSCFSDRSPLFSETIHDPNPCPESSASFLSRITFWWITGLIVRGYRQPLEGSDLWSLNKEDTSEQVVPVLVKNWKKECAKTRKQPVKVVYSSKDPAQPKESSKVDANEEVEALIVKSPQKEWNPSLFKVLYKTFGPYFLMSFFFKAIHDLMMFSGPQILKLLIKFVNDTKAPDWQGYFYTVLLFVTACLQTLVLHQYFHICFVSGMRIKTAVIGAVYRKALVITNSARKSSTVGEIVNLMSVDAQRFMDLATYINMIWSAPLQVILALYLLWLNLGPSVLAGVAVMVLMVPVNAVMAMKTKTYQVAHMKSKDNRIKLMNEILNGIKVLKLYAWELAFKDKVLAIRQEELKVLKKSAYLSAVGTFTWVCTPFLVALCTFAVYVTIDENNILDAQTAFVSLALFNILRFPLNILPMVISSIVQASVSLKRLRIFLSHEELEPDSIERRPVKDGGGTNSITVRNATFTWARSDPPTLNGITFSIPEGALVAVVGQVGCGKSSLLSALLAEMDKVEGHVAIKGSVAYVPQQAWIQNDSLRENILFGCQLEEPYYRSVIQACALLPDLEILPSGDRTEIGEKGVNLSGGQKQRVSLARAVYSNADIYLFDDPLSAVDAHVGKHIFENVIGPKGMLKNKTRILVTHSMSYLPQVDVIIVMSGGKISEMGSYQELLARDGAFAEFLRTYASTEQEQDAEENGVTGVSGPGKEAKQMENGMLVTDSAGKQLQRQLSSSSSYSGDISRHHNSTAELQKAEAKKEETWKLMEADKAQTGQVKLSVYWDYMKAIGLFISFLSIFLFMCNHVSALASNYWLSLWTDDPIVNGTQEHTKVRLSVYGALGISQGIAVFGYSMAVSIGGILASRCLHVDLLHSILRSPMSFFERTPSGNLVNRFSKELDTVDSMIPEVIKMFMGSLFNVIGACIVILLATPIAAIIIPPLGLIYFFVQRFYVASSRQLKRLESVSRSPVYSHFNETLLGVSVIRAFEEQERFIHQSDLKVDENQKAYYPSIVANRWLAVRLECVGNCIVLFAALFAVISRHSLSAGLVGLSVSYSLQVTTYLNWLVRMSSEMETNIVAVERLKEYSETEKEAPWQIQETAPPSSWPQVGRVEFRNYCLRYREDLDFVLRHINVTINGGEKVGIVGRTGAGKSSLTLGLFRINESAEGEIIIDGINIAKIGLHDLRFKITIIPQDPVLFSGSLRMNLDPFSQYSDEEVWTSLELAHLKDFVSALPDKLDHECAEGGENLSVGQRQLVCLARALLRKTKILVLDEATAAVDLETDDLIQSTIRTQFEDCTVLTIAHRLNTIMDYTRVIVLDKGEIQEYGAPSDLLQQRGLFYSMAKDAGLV
T4 sequence (O43570 25-354): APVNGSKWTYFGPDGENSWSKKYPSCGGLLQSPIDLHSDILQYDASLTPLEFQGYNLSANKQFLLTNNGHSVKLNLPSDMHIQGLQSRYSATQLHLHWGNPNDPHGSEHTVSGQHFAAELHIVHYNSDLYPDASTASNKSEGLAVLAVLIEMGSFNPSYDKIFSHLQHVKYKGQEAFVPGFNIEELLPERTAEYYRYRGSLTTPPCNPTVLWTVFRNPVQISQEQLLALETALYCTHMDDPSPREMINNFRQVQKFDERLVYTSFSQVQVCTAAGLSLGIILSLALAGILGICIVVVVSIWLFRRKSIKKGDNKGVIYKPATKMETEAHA
T1 sequence (P00915 whole entry): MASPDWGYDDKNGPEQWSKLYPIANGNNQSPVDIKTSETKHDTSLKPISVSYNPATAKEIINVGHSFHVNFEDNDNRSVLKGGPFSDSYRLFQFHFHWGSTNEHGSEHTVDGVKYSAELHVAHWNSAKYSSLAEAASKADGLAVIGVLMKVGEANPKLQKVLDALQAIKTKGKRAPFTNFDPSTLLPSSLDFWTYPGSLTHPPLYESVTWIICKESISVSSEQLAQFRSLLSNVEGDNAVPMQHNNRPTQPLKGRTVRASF

COc1cc(CN2CCN(CCOc3ccc4ccc(=O)oc4c3)CC2)cc(OC)c1OC [Compound 13, 7-(2-(4-(3,4,5-Trimethoxybenzyl)piperazin-1-yl)ethoxy)-2H-chromen-2-one]
Ki (hCA I): > 10 µM
Ki (hCA II): > 10 µM
Ki (hCA IX): 0.0237 µM
Ki (hCA XII): 0.0062 µM
RF (Reversal Fold: IC50 of doxorubicin alone / in presence of modulator) (K562/DOX cells; compound at 1 µM): 1.0
RF (Reversal Fold: IC50 of doxorubicin alone / in presence of modulator) (K562/DOX cells; compound at 3 µM): 1.9
EC50 (MRP1): 52 ± 10 µM
more cytotoxic in resistant cells than in parental sensitive cells (A549/DOX cells [1]): 15%-20%
more cytotoxic in resistant cells than in parental sensitive cells (HT29/DOX cells [2]): 15%-20%
increase of ROS levels compared to the control (A549/DOX cells [3]): 7–8 times
increase of ROS levels compared to the control (HT29/DOX cells [4]): 3–4 times
increase of TBARS levels compared to the control (A549/DOX cells [5]): 4 times
increase of TBARS levels compared to the control (HT29/DOX cells [6]): 2.6 times
membrane fluidity (A549/DOX cells [7]): increased membrane fluidity
membrane fluidity (HT29/DOX cells [8]): increased membrane fluidity
P-gp catalytic activity (P-gp [9]): lowered the catalytic efficacy of P-gp in resistant cells to levels comparable to drug-sensitive HT29 and A549 cells
P-gp catalytic activity (P-gp [10]): lowered the catalytic efficacy of P-gp in resistant cells to levels comparable to drug-sensitive HT29 and A549 cells
EC50 (P-gp [11]): 14.5 ± 0.25 µM
